The values that follow come from US8759323B2, “Protein phosphatase inhibitor” (LSIP, LLC, priority 2008, dated 2014).

Like-named read-outs stand apart in the source and are kept apart here.

Holding throughout (format): biochemical
The target of assay [1] is T1, PP2A (Homo sapiens, UniProt P67775).
T1 construct: purchased Promega K.K
The experiment in a line: PP2A inhibitory activity (Test Example 2). The following applies: with addition of 40 μM inhibitor. The protocol:
Also, in order to analyze the enzyme selectivity of the inhibitor within the Ser/Thr phosphatase family, the inhibitory effect on PP2A (Protein ID: P67775/cDNA ID: X12649), which belongs to the PPP family, was analyzed. PP2A was purchased from Promega K.K. As a substrate of PP2A, a phospho-p38 peptide analog (Ac-Thr-Asp-Asp-Glu-Met-Thr(P)-Gly-Tyr-Val-Ala-Thr-NH2: Thr(P) indicates phosphorylated Thr) was used. 30 μL of a mixed solution of the inhibitor and the substrate (333.3 μM phosphorylated peptide substrate, each concentration of the inhibitor, 1.7% DMSO (in the case of Example 1, 1.5% DMSO and 0.2% EtOH), and 13 mM Tris-HCl (pH 8.0)) was kept warm at 30° C., to which 20 μL of a mixed solution of an enzyme and a metal ion kept at 4° C. (25 mU PP2A, 125 mM Tris-HCl (pH 7.5), 0.25 mM EGTA, 0.05% 2-mercaptoethanol, and 75 mM MgCl2) was added. The resulting mixture was incubated at 30° C. for 10 minutes, and then the inhibitory activity on PP2A was measured.
The inhibitory activity on PPM1A, PP2A, and PPM1D at each final concentration of the inhibitor (0, 0.1, 0.2, 0.4, 1, 2, 4, 10, or 40 μM) was measured three times with respect to each concentration, and the concentration of the inhibitor required for 50% inhibition of the enzyme activity (IC50) was determined. […]

The target of assay [2] is T2, PPM1D protein catalytic domain (positions 1 to 420), His tag fusion (Homo sapiens, UniProt O15297).
T2 construct: the catalytic domain (the positions 1 to 420) of PPM1D protein; His tag; made in house; host or cells: E. coli (pColdI vector)
T2 sequence (O15297 1-420): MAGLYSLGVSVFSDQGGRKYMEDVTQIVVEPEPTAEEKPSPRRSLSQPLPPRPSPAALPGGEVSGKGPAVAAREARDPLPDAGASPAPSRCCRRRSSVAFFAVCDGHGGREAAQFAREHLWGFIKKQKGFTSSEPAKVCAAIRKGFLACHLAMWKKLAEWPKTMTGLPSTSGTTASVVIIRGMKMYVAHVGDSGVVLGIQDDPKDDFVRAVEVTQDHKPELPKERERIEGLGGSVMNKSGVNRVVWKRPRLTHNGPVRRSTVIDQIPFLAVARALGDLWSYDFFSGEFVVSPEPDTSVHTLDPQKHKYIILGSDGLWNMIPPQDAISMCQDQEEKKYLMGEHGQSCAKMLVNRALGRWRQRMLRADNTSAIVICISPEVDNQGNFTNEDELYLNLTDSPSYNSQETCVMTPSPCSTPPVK
The experiment in a line: PPM1D-inhibitory activity, single concentration (Test Example 1, BIOMOL GREEN free phosphate). More on the design: dose or concentration left out as unconfirmed. Particulars: read-out: Rate of PPM1D inhibition (: %). The protocol: The PPM1D-inhibitory activity of the compound of the present invention (1) was measured.
Into a pColdI vector (TaKaRa Bio Inc.), cDNA encoding the catalytic domain (the positions 1 to 420) of PPM1D protein (Protein ID: O15297/cDNA ID: U70385) was introduced, and the PPM1D protein was expressed in E. coli as a His tag fusion protein. The protein of interest was purified by metal affinity chromatography with BD-TALON resin (CLONTECH), and then eluted with an elution buffer (150 mM imidazole, PBS (pH 7.5), 500 mM NaCl, 10% glycerol, 0.2% ethanol, and 1 mM 2-mercaptoethanol). The PPM1D protein thus eluted was dialyzed against a dialysis buffer (50 mM Tris-HCl (pH 7.5), 0.1 mM EGTA, and 0.02% 2-mercaptoethanol) for 16 hours, and then stored at −80° C. as a 50% glycerol stock (an enzyme concentration of 1 μM).
The enzyme that was expressed and purified by the aforementioned method was used for analysis of the inhibitory effect of the compound on PPM1D. […] A purified phospho-p53 peptide was dissolved in H2O to prepare a 400 μM original substrate solution. The test compound of Example 1 (inhibitor) was dissolved in ethanol (EtOH) to a concentration of 40 mM, and then diluted with dimethyl sulfoxide (DMSO) to adjust an original inhibitor solution with a concentration of 4 mM in advance. Other inhibitors were dissolved in dimethyl sulfoxide (DMSO) to prepare original inhibitor solutions with a concentration of 4 mM. 30 μL of a mixed solution of the inhibitor and the substrate (66.7 μM phosphorylated peptide substrate, […], 1.7% DMSO (in the case of Example 1, 1.5% DMSO and 0.2% EtOH), and 13 mM Tris-HCl (pH 8.0)) was kept warm at 30° C., to which 20 μL of a mixed solution of an enzyme and a metal ion kept at 4° C. (10 nM PPM1D, 125 mM Tris-HCl (pH 7.5), 0.25 mM EGTA, 0.05% 2-mercaptoethanol, and 75 mM MgCl2) was added. The resulting mixture was incubated at 30° C. for 10 minutes, and then the inhibitory activity on PPM1D was measured. The enzyme reaction was terminated with addition of 100 μL of a BIOMOL GREEN reagent (Biomol), and 30 minutes later, the absorbance at 620 nm was measured to detect phosphoric acid freed by PPM1D. The inhibitory effect on PPM1D was analyzed by measuring, from the absorbance measured at 620 nm, the amount of free phosphoric acid reduced due to the addition of the inhibitor with respect to the amount of free phosphoric acid in the case of addition of DMSO not including the inhibitor.

In assay [3] the target is T3, full length PPM1A (382 residues) (Homo sapiens, UniProt P35813).
T3 construct: cDNA encoding full length PPM1A (382 residues); His tag (inferred: same pColdI vector, purified like His-PPM1D); made in house; host or cells: E. coli (pColdI vector)
T3 sequence (P35813 1-382): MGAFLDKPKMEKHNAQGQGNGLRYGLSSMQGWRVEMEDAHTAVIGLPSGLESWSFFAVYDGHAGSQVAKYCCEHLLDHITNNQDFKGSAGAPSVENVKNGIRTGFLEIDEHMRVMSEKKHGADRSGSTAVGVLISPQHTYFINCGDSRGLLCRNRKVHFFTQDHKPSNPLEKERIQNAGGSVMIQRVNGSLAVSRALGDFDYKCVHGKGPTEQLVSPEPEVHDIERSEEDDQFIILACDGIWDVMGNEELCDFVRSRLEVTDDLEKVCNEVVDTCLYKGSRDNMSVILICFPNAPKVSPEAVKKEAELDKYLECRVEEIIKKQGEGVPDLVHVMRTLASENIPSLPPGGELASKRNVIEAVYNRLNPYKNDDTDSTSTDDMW
The experiment in a line: PPM1A inhibitory activity (Test Example 2). Particulars: 16 nM PPM1A, phospho-p38 peptide analog substrate, MnCl2. The protocol:
In order to analyze the enzyme selectivity of the inhibitor, the inhibitory effect on PPM1A, which belongs to the PPM1 family as PPM1D does, was analyzed and compared with the inhibitory effect on PPM1D. Into a pColdI vector, cDNA encoding full length PPM1A (382 residues) (Protein ID: P35813/cDNA ID: S87759) was introduced, and the PPM1A was expressed in E. coli and then purified similarly to PPM1D. The inhibitory activity on 16 nM purified PPM1A was measured. As a substrate of PPM1A, a phospho-p38 peptide analog (Ac-Asp-Asp-Glu-Nle-Thr(P)-Gly-Tyr(P)-Val-Ala-Thr-Arg-NH2: Thr(P), Tyr(P), and Nle indicate phosphorylated Thr, phosphorylated Tyr, and norleucine, respectively) was used.
30 μL of a mixed solution of the inhibitor and the substrate (66.7 μM phosphorylated peptide substrate, each concentration of the inhibitor, 1.7% DMSO (for the test compound of Example 1, 1.5% DMSO and 0.2% EtOH), and 13 mM Tris-HCl (pH 8.0)) was kept warm at 30° C., to which 20 μL of a mixed solution of an enzyme and a metal ion kept at 4° C. (40 nM PPM1A, 125 mM Tris-HCl (pH 7.5), 0.25 mM EGTA, 0.05% 2-mercaptoethanol, and 25 mM MnCl2) was added. The resulting mixture was incubated at 30° C. for 10 minutes, and then the inhibitory activity on PPM1A was measured. […]

Assay [4] has as its target T4, PPM1D (Homo sapiens, UniProt O15297).
T4 construct: the catalytic domain (the positions 1 to 420) of PPM1D protein; His tag; made in house; host or cells: E. coli (pColdI vector)
T4 sequence (O15297 1-420): T2 sequence (O15297 1-420)
The experiment in a line: PPM1D IC50, inhibition constant (Ki) and selectivity (Test Example 2). The following applies: for Ki: PPM1D, phospho-p53 (Ser 15) peptide analog substrate 5-40 μM; for IC50: inhibitor 0-40 μM, measured three times. The protocol: The inhibitory activity on PPM1A, PP2A, and PPM1D at each final concentration of the inhibitor (0, 0.1, 0.2, 0.4, 1, 2, 4, 10, or 40 μM) was measured three times with respect to each concentration, and the concentration of the inhibitor required for 50% inhibition of the enzyme activity (IC50) was determined.
The original inhibitor solution was diluted with a solvent (DMSO, (for the test compound of Example 1, 90% DMSO and 10% EtOH)) to prepare each concentration of an inhibitor solution.
Other conditions for measurement of the enzyme activity are the same as those in Test Example 1.
The enzyme selectivity of the inhibitor was analyzed by comparing the IC50 values of the inhibitor on PPM1D, PPM1A, and PP2A.
Also, the inhibition constant of the inhibitor (Ki) and the inhibition pattern were measured as follows.
As a substrate, a phospho-p53 (Ser 15) peptide analog (Ac-Val-Glu-Pro-Pro-Leu-Ser(P)-[…]NH2: Ser(P) indicates phosphorylated Ser) was used. 30 μL of a mixed solution of the inhibitor and the substrate (each concentration of the phosphorylated peptide substrate, each concentration of the inhibitor, 1.7% DMSO (in the case of Example 1, 1.5% DMSO and 0.2% EtOH), and 13 mM Tris-HCl (pH 8.0)) was kept warm at 30° C., to which 20 μL of a mixed solution of an enzyme and a metal ion kept at 4° C. (10 nM PPM1D, 125 mM Tris-HCl (pH 7.5), 0.25 mM EGTA, 0.05% 2-mercaptoethanol, and 75 mM MgCl2) was added. The resulting mixture was incubated at 30° C. for 10 minutes, and then the inhibitory activity on PPM1D was measured.
The activity on PPM1D was measured at each concentration of the phosphorylated peptide substrate (5, 10, 20, and 40 μM), and at each final concentration of the inhibitor (0, 0.3, 0.4, and 0.6 μM (the compound of Example 1 [Compound 1]) or 0, 0.4, and 1.2 μM (the compound of Example 5 [Compound 2]). The enzyme reaction was terminated with addition of 50 μL of a BIOMOL GREEN reagent (Biomol) to a reaction solution, and 30 minutes later, the absorbance at 620 nm was measured to detect phosphoric acid freed by PPM1D.
Based on the results thus obtained, Ki (μM) was calculated.

[5] abbreviates: phospho-p53 (Ser 15) peptide substrate, 30° C., 10 minutes, read-out: Rate of PPM1D inhibition (%).

T1 sequence (P67775 whole entry): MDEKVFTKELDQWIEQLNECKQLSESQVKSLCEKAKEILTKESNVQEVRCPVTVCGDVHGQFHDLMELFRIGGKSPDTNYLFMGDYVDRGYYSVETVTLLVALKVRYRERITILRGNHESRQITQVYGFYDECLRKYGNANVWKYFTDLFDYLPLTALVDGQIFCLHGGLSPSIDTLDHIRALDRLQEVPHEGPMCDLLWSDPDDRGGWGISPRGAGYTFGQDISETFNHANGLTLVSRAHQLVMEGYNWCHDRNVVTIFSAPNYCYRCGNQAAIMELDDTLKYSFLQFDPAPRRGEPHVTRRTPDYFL
T1 sequence (P30153 2-589 partner limits assumed): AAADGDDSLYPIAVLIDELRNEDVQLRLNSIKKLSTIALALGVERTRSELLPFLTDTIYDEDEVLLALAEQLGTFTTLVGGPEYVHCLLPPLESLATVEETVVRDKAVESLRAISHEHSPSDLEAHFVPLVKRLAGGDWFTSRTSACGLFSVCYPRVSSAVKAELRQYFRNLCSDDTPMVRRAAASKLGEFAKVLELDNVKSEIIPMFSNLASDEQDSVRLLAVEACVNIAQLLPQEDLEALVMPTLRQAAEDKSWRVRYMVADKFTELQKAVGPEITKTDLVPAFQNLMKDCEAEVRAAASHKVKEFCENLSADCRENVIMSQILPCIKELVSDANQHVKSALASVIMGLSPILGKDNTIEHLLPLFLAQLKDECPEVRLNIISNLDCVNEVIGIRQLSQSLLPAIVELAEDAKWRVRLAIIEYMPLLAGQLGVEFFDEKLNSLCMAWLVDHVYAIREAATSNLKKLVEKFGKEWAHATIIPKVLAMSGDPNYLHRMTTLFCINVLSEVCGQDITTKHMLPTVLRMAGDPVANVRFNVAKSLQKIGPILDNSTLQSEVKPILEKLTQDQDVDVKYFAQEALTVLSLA

By inhibition is commonly meant how much of the control response was suppressed. As a reminder, the IC50 is the midpoint of a concentration-inhibition curve. For orientation: Ki means the equilibrium dissociation constant of an inhibitor or competing ligand from its target. With `CC[Si](CC)(CC)O[C@@H]1C[C@H](C)C[C@@H]2[C@@H]1C[C@H](O[Si](C)(C)C(C)(C)C)[C@@H]1[C@](C)(CO)C[C@H](O)C[C@@]21C` [Example 1], the inhibition at 40 µM in assay [1] worked out at 11%. Moreover, in assay [2] (setting [5]), the inhibition came to 97.1 ± 2.49%. Besides, the IC50 in assay [3] turned out to be 21000 ± 1700 nM. Moreover, in assay [4], affinity was put at a Ki of 590 ± 50 nM and 430 ± 40 nM corresponded to half-maximal inhibition (IC50).

In assay [1], `CCOC(=O)C=CC12CCC(C)(C1CO[Si](C(C)C)(C(C)C)C(C)C)C2(C)C` (stereo not shown) [Example 5] came in with an inhibition at 40 µM of 14%. Further, the inhibition in assay [2] (setting [5]) worked out at 92.7 ± 1.4%. The same molecule yielded an IC50 in assay [3] of 28000 ± 4200 nM. In assay [4], the Ki is 2600 ± 100 nM and the IC50 was 930 ± 40 nM.

As for `CSC(C)(CO[Si](C(C)C)(C(C)C)C(C)C)S(=O)(=O)c1ccc(C)cc1` (stereo not shown) [Example 11], the inhibition in assay [2] was determined as 33.7 ± 4.78%.

As for `C=C1C2(/C=C/CO)CC[C@@]1(C)C2(C)C` [Comparative Example 4, reference compound], in assay [2] (setting [5]), the inhibition was found to be 0%.

For the molecule `COC(=O)[C@]1(C)CC(=O)C[C@]2(C)[C@@H]3C[C@@H](C)C[C@@H](OC(C)=O)[C@H]3CC(=O)[C@H]21` [Comparative Example 2, reference compound], the inhibition in assay [2] (setting [5]) came to 0%.

With `CC(C)[Si](OCCCC#CCO)(C(C)C)C(C)C` [Example 10], the inhibition in assay [2] is 35.4 ± 2.18%.

`C[C@H]1C[C@@H](O)[C@H]2C[C@H](O[Si](C)(C)C(C)(C)C)[C@@H]3[C@](C)(CO)C[C@H](O)C[C@@]3(C)[C@@H]2C1` [Example 4]: the inhibition in assay [2] turned out to be 25.1%.

Consider `CCOC(=O)/C=C/C12CC[C@](C)([C@@H]1CO)C2(C)C` [Comparative Example 3, reference compound], for which the inhibition in assay [2] (setting [5]) amounted to 0%.
